# Experiments:
# LX-2 cells = test: Fibrosis in LX-2 cells: Col1A1 mRNA induced by TGFβ1, Example 3; assay type: cell-based, human; details: 24 h
# Protocol: FIG. 3 Human hepatic stellate cell line LX-2 was treated with vehicle (DMSO) or TGFβ1 (10 ng/ml) in the absence or presence of GP6 (10 or 40 μg/ml) for 24 h. RNA was extracted and mRNA levels of collagen 1A1 (Col1A1) relative to 18S were measured by RTPCR.
# Cell culture reagents were from Life Technologies Inc (Invitrogen SA, Barcelona, Spain). HepG2 hepatoblastoma cells (cat. no. HB-8065; ATCC, LGC Standards SLU, Barcelona, Spain) were maintained in Dulbecco's modified Eagle medium (DMEM) supplemented with 10% fetal bovine serum and antibiotics. HepG2 cells were cultured for 5 day in the absence or presence of 30 mM fructose. Cells cultured in 30 mM fructose were daily treated with vehicle, Telmisartan, Semaglutide or GP6. LX-2 human hepatic stellate cells (SCC064) were maintained in DMEM supplemented with 2% fetal bovine serum and antibiotics. […]
# Total RNA was extracted from HepG2 and LX-2 cells using TRIzol reagent (Invitrogen SA). […] Results were analyzed using the 7000 Sequence Detection System program (Applied Biosystems, Thermo Fisher Scientific, Barcelona, Spain) (Sex Hormone-Binding Globulin Reduction in Metabolic Disorders May Play a Role in NAFLD Development.Saez-Lopez C, Barbosa-Desongles A, Hernandez C, Dyer R A, Innis S M, Simo R, Selva D M. Endocrinology. 2017 Mar. 1; 158(3):545-559. doi: 10.1210/en.2016-1668).
# HepG2 cells = test: Hepatic lipogenic key enzymes in HepG2 cells in the presence of 30 mM fructose (2 h), Example 7; assay type: cell-based, human; details: 40 μg/ml
# Protocol: FIG. 34. Effects of different peptides and SHBG in reducing hepatic lipogenic key enzymes in the presence of 30 mM fructose. Each bar within each group represents mRNA levels of a key hepatic lipogenic enzyme, from left to right: Acetyl-CoA Carboxylase (ACC), ATP Citrate Lyase (ACLY) and Fatty Acid Synthase (FAS), and a key transcription factor regulating several lipogenic enzymes such as PPARγ (PPARγ).
# Cell culture reagents were from Life Technologies Inc (Invitrogen SA, Barcelona, Spain). HepG2 hepatoblastoma cells (cat. no. HB-8065; ATCC, LGC Standards SLU, Barcelona, Spain) were maintained in Dulbecco's modified Eagle medium (DMEM) supplemented with 10% fetal bovine serum and antibiotics.
# • HepG2 cells were cultured for 5 day in the absence or presence of 30 mM fructose. Cells cultured in 30 mM fructose were daily treated with vehicle, Telmisartan, Semaglutide or EDL6D. • HepG2 cells were cultured for 24 h in the absence or presence of GP6 (40 μg/ml), GP10 (40 μg/ml), GP11 (40 μg/ml), GP12 (40 μg/ml), GP13 (40 μg/ml) or SHBG (20 nM). • HepG2 cells were cultured in the absence or presence of 30 mM fructose and treated for 2 h with vehicle or GP4 (40 μg/ml), GP6 (40 μg/ml), GP7 (40 μg/ml), GP8 (40 μg/ml), GP9 (40 μg/ml), GP10 (40 μg/ml), GP11 (40 μg/ml), GP12 (40 μg/ml), GP13 (40 μg/ml) or SHBG (20 nM).
# Total RNA was extracted from HepG2 and LX-2 cells using TRIzol reagent (Invitrogen SA). Reverse transcription was performed at 42° C. for 50 minutes using […] of total RNA, 200 U of Superscript II, and an oligo-dT primer and reagents provided by Invitrogen. An aliquot of the reverse transcription product was amplified in a […] reaction using SYBRGreen (Invitrogen SA) with appropriate oligonucleotide primer pairs corresponding to human SHBG, ACC, FAS, ACLY, PPARG, and 18S and mouse ACC, FAS, ACLY, PPARG, Col1A1 and 18S. Results were analyzed using the 7000 Sequence Detection System program (Applied Biosystems, Thermo Fisher Scientific, Barcelona, Spain) (Shez-Lopez et al Endocrinology 2017).
smiles,measurement,setting,value
CC[C@@H](C)[C@@H](NC(=O)[C@H](NC(=O)CNC(=O)[C@@H](CCC(=O)O)NC(=O)[C@H]1CCCN1C(=O)[C@@H](CC(=O)O)NC(=O)[C@@H](Cc1c[nH]c2ccccc12)NC(=O)[C@H](NC(=O)[C@@H](CCCNC(=N)N)NC(=O)[C@H](NC(=O)[C@@H](CCC(=O)O)NC(=O)[C@@H](Cc1ccccc1)NC(=O)[C@@H](CO)NC(=O)[C@@H](CO)NC(=O)[C@@H](CO)NC(=O)[C@H](NC(=O)[C@@H](CCCCN)NC(=O)[C@H](N)[C@H](C)O)[C@H](C)O)C(C)C)[C@H](C)O)C(C)C)C(=O)N[C@H](Cc1ccccc1)C(=O)N[C@H](Cc1ccc(O)cc1)C(=O)O [GP6],reduction of mRNA levels of collagen 1A1 induced by TGFβ1,LX-2 cells; 10 μg/ml,28%
same,reduction of mRNA levels of collagen 1A1 induced by TGFβ1,LX-2 cells; 40 μg/ml,45%
same,fructose-induced expression of ACC,HepG2 cells,able to reduce
same,fructose-induced expression of ACLY,HepG2 cells,able to reduce
same,fructose-induced expression of FAS,HepG2 cells,able to reduce
same,fructose-induced expression of PPARγ,HepG2 cells,able to reduce

# From patent publication US20260297136A1, “PEPTIDES WITH LIPOLYTIC, ANTI-LIPOGENIC, ANTIFIBROTIC AND ANTI-INFLAMMATORY ACTIVITY” (FUNDACIÓ HOSPITAL UNIVERSITARI VALL D'HEBRON - INSTITUT DE …, priority 2023, published 2026)
